{"source": "patent US12721835B2", "about": "“Anticoccidial composition comprising violacein, and use thereof” (CJ CHEILJEDANG CORPORATION, priority 2020, dated 2026)", "key": {"[1]": {"system": "Eimeria maxima (E. maxima) protozoa", "experiment": "Heat resistance of violacein: protozoal death rate after heat exposure", "format": "cell-based", "procedure": "In the present example, the heat resistance of the violacein was to be evaluated. […] 200,000 Eimeria maxima (E. maxima) protozoa were reacted to the violacein at various concentrations of 0.1 to 100 ppm at a temperature of 41° C. for 4 hours, and the protozoal death rate (%) was measured by the similar method to Example 3 above, and this was shown in FIG. 5 and Table 12. In Table 12 below, the control group means a violacein solution without treating the high temperature condition, and the protozoa alone means a group to which violacein was not treated."}, "[2]": {"experiment": "In vivo safety evaluation: violacein content remaining in body after feeding (LC/MS)", "conditions": "chicken (broiler), cecum luminal intestinal contents, oral, 50 ppm in feed; broilers fed feed comprising 50 ppm violacein for 7 days; read-out: Violacein content (mg/kg), Cecum luminal intestinal contents", "procedure": "The safety evaluation of violacein was conducted in a breeding facility under the condition described in Example 1. At 7 days of age, broilers were fed a feed comprising 50 ppm violacein for 7 days, and an autopsy was conducted at 14 days of age, and the feed, appendix luminal intestinal contents, blood, spleen, liver and kidney were collected. For the feed used in formulation with the violacein, Daehanfeed Al-Choi product was used.\nEach sample of the collected tissue was tested for the content of violacein through the HPLC method. For feed pretreatment, 1 g of each treatment group was weighed and diluted by adding 10 ? of MTBE solution, and then sonication was progressed for 1 hour, and filtration was performed using a […] syringe filter. Then, after evaporating the filtered sample for 1 hour, 1 ? , of 100% methanol was added. In addition, sonication was conducted for 1 minute, and it not dissolved, the supernatant was filtered once more using a […] syringe filter, and then placed in a vial for analysis. […] Then, the samples in which pretreatment was completed were analyzed using a set LC/MS instrument to measure the amount of violacein remaining in a body after feeding, and the result was shown in Table 13 below. In Table 13, ND (not detected) means not detected."}}, "data": [{"smiles": "O=C1N=c2ccccc2=C1c1cc(-c2c[nH]c3ccc(O)cc23)[nH]c1O", "note": "[Violacein, 3-(2-(5-Hydroxyindol-3-yl)-5-oxo-2-pyrrolin-4-ylidene)-2-indolinone]", "values": [{"measurement": "Death rate according to violacein treatment condition", "setting": "[1]; 85° C., 10 min, 0.1 ppm", "result": 62, "unit": "%"}, {"measurement": "Death rate according to violacein treatment condition", "setting": "[1]; 85° C., 10 min, 1 ppm", "result": 89, "unit": "%"}, {"measurement": "Death rate according to violacein treatment condition", "setting": "[1]; 85° C., 10 min, 10 ppm", "result": 99, "unit": "%"}, {"measurement": "Death rate according to violacein treatment condition", "setting": "[1]; 85° C., 10 min, 100 ppm", "result": 100, "unit": "%"}, {"measurement": "Death rate according to violacein treatment condition", "setting": "[1]; 90° C., 10 min, 0.1 ppm", "result": 65, "unit": "%"}, {"measurement": "Death rate according to violacein treatment condition", "setting": "[1]; 90° C., 10 min, 1 ppm", "result": 88, "unit": "%"}, {"measurement": "Death rate according to violacein treatment condition", "setting": "[1]; 90° C., 10 min, 10 ppm", "result": 99, "unit": "%"}, {"measurement": "Death rate according to violacein treatment condition", "setting": "[1]; 90° C., 10 min, 100 ppm", "result": 100, "unit": "%"}, {"measurement": "Death rate according to violacein treatment condition", "setting": "[1]; 95° C., 10 min, 0.1 ppm", "result": 69, "unit": "%"}, {"measurement": "Death rate according to violacein treatment condition", "setting": "[1]; 95° C., 10 min, 1 ppm", "result": 90, "unit": "%"}, {"measurement": "Death rate according to violacein treatment condition", "setting": "[1]; 95° C., 10 min, 10 ppm", "result": 99, "unit": "%"}, {"measurement": "Death rate according to violacein treatment condition", "setting": "[1]; 95° C., 10 min, 100 ppm", "result": 100, "unit": "%"}, {"measurement": "Death rate according to violacein treatment condition", "setting": "[1]; Control group (no high temperature), 0.1 ppm", "result": 64, "unit": "%"}, {"measurement": "Death rate according to violacein treatment condition", "setting": "[1]; Control group (no high temperature), 1 ppm", "result": 85, "unit": "%"}, {"measurement": "Death rate according to violacein treatment condition", "setting": "[1]; Control group (no high temperature), 10 ppm", "result": 100, "unit": "%"}, {"measurement": "Death rate according to violacein treatment condition", "setting": "[1]; Control group (no high temperature), 100 ppm, 41° C. 4 hours", "result": 100, "unit": "%"}, {"measurement": "Heat resistance (killing efficacy after high temperature)", "setting": "[1]; high temperature (80 to 95° C.), 10 minutes", "result": "the protozoal killing efficacy of violacein did not appear"}, {"measurement": "concentration at 7 days of feeding", "setting": "[2]", "result": 2100, "unit": "ng/g"}]}]}
